The text below walks through data of patent US11414395B2, “Heterocyclic compounds as modulators of mGluR7” (PRAGMA Therapeutics, priority 2017, dated 2022).

Each structure is given as a SMILES string.

Chain of human mGluR7 (Q14831 35-915): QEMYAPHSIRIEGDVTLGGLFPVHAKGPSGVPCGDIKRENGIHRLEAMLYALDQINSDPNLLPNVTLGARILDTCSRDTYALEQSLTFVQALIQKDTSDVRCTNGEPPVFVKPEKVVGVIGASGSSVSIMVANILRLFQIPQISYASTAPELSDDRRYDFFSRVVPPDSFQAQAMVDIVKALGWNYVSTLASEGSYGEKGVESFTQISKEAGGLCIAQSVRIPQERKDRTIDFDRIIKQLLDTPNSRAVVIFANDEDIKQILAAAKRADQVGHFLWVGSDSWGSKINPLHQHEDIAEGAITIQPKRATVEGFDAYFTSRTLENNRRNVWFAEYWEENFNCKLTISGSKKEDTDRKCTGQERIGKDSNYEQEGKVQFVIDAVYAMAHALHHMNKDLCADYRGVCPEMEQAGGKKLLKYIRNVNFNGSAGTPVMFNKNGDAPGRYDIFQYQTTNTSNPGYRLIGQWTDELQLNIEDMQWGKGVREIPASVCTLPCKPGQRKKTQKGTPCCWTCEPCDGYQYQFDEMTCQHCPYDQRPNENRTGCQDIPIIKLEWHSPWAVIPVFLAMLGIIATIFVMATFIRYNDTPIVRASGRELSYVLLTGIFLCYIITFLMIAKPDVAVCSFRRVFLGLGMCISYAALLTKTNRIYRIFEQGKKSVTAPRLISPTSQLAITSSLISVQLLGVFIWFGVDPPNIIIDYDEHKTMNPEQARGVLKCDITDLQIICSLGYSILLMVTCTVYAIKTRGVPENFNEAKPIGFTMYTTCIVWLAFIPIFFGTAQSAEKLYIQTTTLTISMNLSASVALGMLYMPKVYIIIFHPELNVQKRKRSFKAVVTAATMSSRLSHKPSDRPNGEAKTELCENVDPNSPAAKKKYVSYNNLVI

This test has as its target human mGluR7 (Homo sapiens (Human), UniProt Q14831). Put plainly: Inositol monophosphate production assay (IP1 assay), inhibition of L-AP4 response. Conditions: mean IC50 from at least two independent experiments; HEK293 cells transiently transfected with mGluR7, Gqtop and EAAC1; IP1 production vs EC80 L-AP4. The test is classed as cell-based. An outline of the steps:
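HEK293 cells transiently co-expressing mGluR7, chimeric Gq/Gi (Gqtop) and EAAC1, switched to Glutamax medium 3 h before stimulation. IP1 measured by competitive HTRF; inhibition of an EC80-equivalent L-AP4 response, triplicate points, four-parameter fit to log IC50, mean of ≥2 experiments.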
For `COc1ccc(C(F)(F)F)c(C2CCc3c(cnn(-c4ncccn4)c3=O)C2)c1` (stereo not drawn) [Example 73, 6-(5-methoxy-2-(trifluoromethyl)phenyl)-2-(pyrimidin-2-yl)-5,6,7,8-tetrahydrophthalazin-1(2H)-one], the IC50 (usually the concentration needed to halve the response being measured) lay in the range of 1000 to 30000 nM.
On to `COc1cccc(C2CCc3c(cnn(-c4ncc(N5CCOCC5)cn4)c3=O)C2)c1C` (stereo not drawn) [Example 112, 6-(3-methoxy-2-methylphenyl)-2-(5-morpholinopyrimidin-2-yl)-5,6,7,8-tetrahydrophthalazin-1(2H)-one], for which the 50% inhibitory concentration (IC50) is less than 500 nM.
As for `Cc1ccc(C2CCc3c(cnn(-c4ncccc4Cl)c3=O)C2)c(C)c1` (stereo not drawn) [Example 8, 2-(3-chloropyridin-2-yl)-6-(2,4-dimethylphenyl)-5,6,7,8-tetrahydrophthalazin-1(2H)-one], the figure is less than 500 nM.
In the case of `CN1CCc2c(C3CCc4c(cnn(-c5ccccn5)c4=O)C3)cccc21` (stereo not drawn) [Example 69, 6-(1-methylindolin-4-yl)-2-(pyridin-2-yl)-5,6,7,8-tetrahydrophthalazin-1(2H)-one], the IC50 was less than 500 nM.
As to `COc1cccnc1-n1ncc2c(c1=O)CCC(c1ccc(C)cc1C)C2` (stereo not drawn) [Example 16, 6-(2,4-dimethylphenyl)-2-(3-methoxypyridin-2-yl)-5,6,7,8-tetrahydrophthalazin-1(2H)-one], the IC50 was less than 500 nM.
Compound `Cc1ccc(C2CCc3c(cnn(-c4ccccn4)c3=O)C2)c(C)c1` (single isomer, unassigned; (+)) [Example 5, (+)-6-(2,4-dimethyl-phenyl)-2-pyridin-2-yl-5,6,7,8-tetrahydro-2H-phthalazin-1-one] had an IC50 of less than 500 nM.
`COc1cccc(C2CCc3c(cnn(-c4ncc(OCCO)cn4)c3=O)C2)c1C` (stereo not drawn) [Example 119, 2-(5-(2-hydroxyethoxy)pyrimidin-2-yl)-6-(3-methoxy-2-methylphenyl)-5,6,7,8-tetrahydrophthalazin-1(2H)-one] returned an IC50 of less than 500 nM.
As for `COc1ccc(C)c(C2CCc3c(cnn(-c4ncc(C5CC5)cn4)c3=O)C2)c1` (stereo not drawn) [Example 107, 2-(5-cyclopropylpyrimidin-2-yl)-6-(5-methoxy-2-methylphenyl)-5,6,7,8-tetrahydrophthalazin-1(2H)-one], the IC50 was 500 to 1000 nM.
As for `CC(=O)c1cccc(C2CCc3c(cnn(-c4ncccn4)c3=O)C2)c1C` (stereo not drawn) [Example 120, 6-(3-acetyl-2-methylphenyl)-2-(pyrimidin-2-yl)-5,6,7,8-tetrahydrophthalazin-1(2H)-one], the figure is 1000 to 30000 nM.
`Cc1ccnc(-n2ncc3c(c2=O)CCC(c2ccc(C)cc2C)C3)c1` (stereo not drawn) [Example 19, 6-(2,4-dimethylphenyl)-2-(4-methylpyridin-2-yl)-5,6,7,8-tetrahydrophthalazin-1(2H)-one] displayed an IC50 of less than 500 nM.
For `COc1cccc(C2CCc3c(cnn(-c4ncc(N5CCCC5)cn4)c3=O)C2)c1C` (stereo not drawn) [Example 111, 6-(3-methoxy-2-methylphenyl)-2-(5-(pyrrolidin-1-yl)pyrimidin-2-yl)-5,6,7,8-tetrahydrophthalazin-1(2H)-one] the value was 1000 to 30000 nM.
The compound `Cc1ccc(C2CCc3c(cnn(-c4cccnc4)c3=O)C2)c(C)c1` (stereo not drawn) [Example 28, 6-(2,4-dimethylphenyl)-2-(pyridin-3-yl)-5,6,7,8-tetrahydrophthalazin-1(2H)-one] yielded an IC50 of less than 500 nM.
The compound `COc1cccc(C2CCc3c(cnn(-c4ccc(CO)cn4)c3=O)C2)c1C` (stereo not drawn) [Example 39, 2-(5-(hydroxymethyl)pyridin-2-yl)-6-(3-methoxy-2-methylphenyl)-5,6,7,8-tetrahydrophthalazin-1(2H)-one] gave a half-inhibitory concentration (IC50) of less than 500 nM.
On to `Cc1ccc(C2CCc3c(cnn(-c4ncccc4C)c3=O)C2)c(C)c1` (stereo not drawn) [Example 20, 6-(2,4-dimethylphenyl)-2-(3-methylpyridin-2-yl)-5,6,7,8-tetrahydrophthalazin-1(2H)-one], for which the concentration for half-maximal inhibition (IC50) is less than 500 nM.
Compound `O=c1c2c(cnn1-c1ncccn1)CC(c1cccc3c1ccn3C1CC1)CC2` (single isomer, unassigned; (+)) [Example 138, (+)-6-(1-cyclopropyl-1H-indol-4-yl)-2-(pyrimidin-2-yl)-5,6,7,8-tetrahydrophthalazin-1(2H)-one] showed an IC50 of 500 to 1000 nM.
